# US8026278B2, “Inhibitors of pyruvate kinase as therapeutic agents for cancer” (priority 2005, dated 2011)
# How the values were obtained:
# [1] = target: T1, Pyruvate kinase isolated from rabbit muscle (Oryctolagus cuniculus, UniProt P11974); experiment: Inhibition of pyruvate kinase (indirect assay quantifying ADP production); assay type: biochemical
# T1 construct: Pyruvate kinase isolated from rabbit muscle; purchased Sigma-Aldrich; host or cells: rabbit muscle (tissue-derived enzyme)
# Description: The compounds E-3-chlorophosphoenolpyruvate ditriethyl-ammonium salt (ECPDAT), Z-3-chlorophosphoenolpyruvate tritriethyl-ammonium salt (CPTP), phosphoenol-3-bromo-pyruvic acid mono-cyclohexyl ammonium salt (PBPA), 2-bromooxoethylphosphonic acid mono-cyclohexyl-ammonium salt (BOEPA) and 3-bromopyruvic acid (BrPyA) were tested for their efficiency at inhibiting pyruvate kinase. Pyruvate kinase isolated from rabbit muscle was purchased from Sigma-Aldrich. Pyruvate kinase was assayed indirectly by quantifying ADP production formed in the reaction ATP+pyruvate to ADP+phosphoenolpyruvate. Inhibitors were added to the reaction mixture immediately before the reaction was started by the addition of ATP.
# [2] = tested on: MCF7 (breast) cancer cell line; experiment: MTT assay, inhibition of cell proliferation, MCF7; assay type: cell-based; conditions: MCF7, 72 hours
# Description: (§1) The compounds of the invention were tested for their inhibition potential of cell proliferation. MCF7 (breast) and SF268 (glioma) cancer cell lines were incubated with different concentrations of the compounds and their viability was assessed using an MTT (3-(4,5-dimethylthiazol-2-yl)-2,5-diphenyltetrazolium bromide) assay. The MTT assay is well known in the art (see for example Slater et al., Biochim. Biophys. Acta 77 (1963) 383). The cells were incubated with a given inhibitor for 72 hours and assayed.
# [3] = tested on: SF268 (glioma) cancer cell line; experiment: MTT assay, inhibition of cell proliferation, SF268; assay type: cell-based; conditions: SF268, 72 hours
# Description: as §1
# T1 sequence (P11974 whole entry): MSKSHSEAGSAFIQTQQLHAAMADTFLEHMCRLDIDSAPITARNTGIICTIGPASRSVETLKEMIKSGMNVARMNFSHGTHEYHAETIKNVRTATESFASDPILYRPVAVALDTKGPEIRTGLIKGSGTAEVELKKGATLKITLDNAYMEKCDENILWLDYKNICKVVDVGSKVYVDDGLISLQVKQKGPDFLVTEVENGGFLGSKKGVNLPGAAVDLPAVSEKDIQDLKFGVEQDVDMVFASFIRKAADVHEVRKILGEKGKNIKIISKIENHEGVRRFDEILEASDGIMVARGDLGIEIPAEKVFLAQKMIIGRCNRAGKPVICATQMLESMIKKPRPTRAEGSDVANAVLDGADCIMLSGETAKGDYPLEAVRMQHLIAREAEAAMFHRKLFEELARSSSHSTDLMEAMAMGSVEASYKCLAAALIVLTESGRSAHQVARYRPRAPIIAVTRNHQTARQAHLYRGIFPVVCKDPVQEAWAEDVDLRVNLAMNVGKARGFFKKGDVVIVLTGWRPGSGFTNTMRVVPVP
compound,measurement,setting,value
E-3-chlorophosphoenolpyruvate ditriethyl-ammonium salt [E-CPDA],Inhibition of pyruvate kinase compared with BrPyA,[1],inhibited pyruvate kinase at lower concentrations than BrPyA
same,% Inhibition,[1]; Concentration 0.1 μM,0%
same,% Inhibition,[1]; Concentration 1 μM,10.9%
same,% Inhibition,[1]; Concentration 10 μM,100%
same,Inhibition of cell proliferation,[2],inhibited cell proliferation
same,% (A-Blank relative to control),[2]; 10 uM,101.1%
same,A-Blank (Average-Blank) O.D. at 570 nm,[2]; 10 uM,0.8245 O.D.
same,Average O.D. reading at 570 nm,[2]; 10 uM,0.91 O.D.
same,% (A-Blank relative to control),[2]; 25 uM,97.333%
same,A-Blank (Average-Blank) O.D. at 570 nm,[2]; 25 uM,0.7938 O.D.
same,Average O.D. reading at 570 nm,[2]; 25 uM,0.8793 O.D.
same,% (A-Blank relative to control),[2]; 50 uM,86.726%
same,A-Blank (Average-Blank) O.D. at 570 nm,[2]; 50 uM,0.7073 O.D.
same,Average O.D. reading at 570 nm,[2]; 50 uM,0.7928 O.D.
same,% (A-Blank relative to control),[2]; 75 uM,78.449%
same,A-Blank (Average-Blank) O.D. at 570 nm,[2]; 75 uM,0.6398 O.D.
same,Average O.D. reading at 570 nm,[2]; 75 uM,0.7253 O.D.
same,% (A-Blank relative to control),[2]; 100 uM,72.072%
same,A-Blank (Average-Blank) O.D. at 570 nm,[2]; 100 uM,0.5878 O.D.
same,Average O.D. reading at 570 nm,[2]; 100 uM,0.6733 O.D.
same,% (A-Blank relative to control),[2]; 200 uM,68.486%
same,A-Blank (Average-Blank) O.D. at 570 nm,[2]; 200 uM,0.5585 O.D.
same,Average O.D. reading at 570 nm,[2]; 200 uM,0.644 O.D.
same,% (A-Blank relative to control),[2]; 300 uM,7.8786%
same,A-Blank (Average-Blank) O.D. at 570 nm,[2]; 300 uM,0.06425 O.D.
same,Average O.D. reading at 570 nm,[2]; 300 uM,0.1497 O.D.
same,% (A-Blank relative to control),[2]; 500 uM,2.759%
same,A-Blank (Average-Blank) O.D. at 570 nm,[2]; 500 uM,0.0225 O.D.
same,Average O.D. reading at 570 nm,[2]; 500 uM,0.108 O.D.
same,Inhibition of cell proliferation,[3],inhibited cell proliferation
same,% (A-Blank relative to control),[3]; 10 uM,80.1%
same,A-Blank (Average-Blank) O.D. at 570 nm,[3]; 10 uM,0.672 O.D.
same,Average O.D. reading at 570 nm,[3]; 10 uM,0.777 O.D.
same,% (A-Blank relative to control),[3]; 25 uM,80.453%
same,A-Blank (Average-Blank) O.D. at 570 nm,[3]; 25 uM,0.675 O.D.
same,Average O.D. reading at 570 nm,[3]; 25 uM,0.78 O.D.
same,% (A-Blank relative to control),[3]; 50 uM,64.243%
same,A-Blank (Average-Blank) O.D. at 570 nm,[3]; 50 uM,0.539 O.D.
same,Average O.D. reading at 570 nm,[3]; 50 uM,0.644 O.D.
same,% (A-Blank relative to control),[3]; 75 uM,44.458%
same,A-Blank (Average-Blank) O.D. at 570 nm,[3]; 75 uM,0.373 O.D.
same,Average O.D. reading at 570 nm,[3]; 75 uM,0.478 O.D.
same,% (A-Blank relative to control),[3]; 100 uM,30.513%
same,A-Blank (Average-Blank) O.D. at 570 nm,[3]; 100 uM,0.256 O.D.
same,Average O.D. reading at 570 nm,[3]; 100 uM,0.361 O.D.
same,% (A-Blank relative to control),[3]; 200 uM,13.23%
same,A-Blank (Average-Blank) O.D. at 570 nm,[3]; 200 uM,0.111 O.D.
same,Average O.D. reading at 570 nm,[3]; 200 uM,0.216 O.D.
same,% (A-Blank relative to control),[3]; 300 uM,6.555%
same,A-Blank (Average-Blank) O.D. at 570 nm,[3]; 300 uM,0.055 O.D.
same,Average O.D. reading at 570 nm,[3]; 300 uM,0.16 O.D.
same,% (A-Blank relative to control),[3]; 500 uM,3.099%
same,A-Blank (Average-Blank) O.D. at 570 nm,[3]; 500 uM,0.026 O.D.
same,Average O.D. reading at 570 nm,[3]; 500 uM,0.131 O.D.
O=C(CBr)P(=O)(O)O [BOEPA],inhibition at 0.1 µM,[1],0%
same,inhibition at 1 µM,[1],0%
same,inhibition at 10 µM,[1],0%
same,Inhibition of cell proliferation,[2],inhibited cell proliferation
same,% (A-Blank relative to control),[2]; 10 uM,93.37%
same,A-Blank (Average-Blank) O.D. at 570 nm,[2]; 10 uM,0.7642 O.D.
same,Average O.D. reading at 570 nm,[2]; 10 uM,0.8518 O.D.
same,% (A-Blank relative to control),[2]; 25 uM,93.769%
same,A-Blank (Average-Blank) O.D. at 570 nm,[2]; 25 uM,0.7675 O.D.
same,Average O.D. reading at 570 nm,[2]; 25 uM,0.855 O.D.
same,% (A-Blank relative to control),[2]; 50 uM,91.142%
same,A-Blank (Average-Blank) O.D. at 570 nm,[2]; 50 uM,0.746 O.D.
same,Average O.D. reading at 570 nm,[2]; 50 uM,0.8335 O.D.
same,% (A-Blank relative to control),[2]; 75 uM,93.28%
same,A-Blank (Average-Blank) O.D. at 570 nm,[2]; 75 uM,0.7635 O.D.
same,Average O.D. reading at 570 nm,[2]; 75 uM,0.851 O.D.
same,% (A-Blank relative to control),[2]; 100 uM,91.57%
same,A-Blank (Average-Blank) O.D. at 570 nm,[2]; 100 uM,0.7495 O.D.
same,Average O.D. reading at 570 nm,[2]; 100 uM,0.837 O.D.
same,% (A-Blank relative to control),[2]; 200 uM,89.249%
same,A-Blank (Average-Blank) O.D. at 570 nm,[2]; 200 uM,0.7305 O.D.
same,Average O.D. reading at 570 nm,[2]; 200 uM,0.818 O.D.
same,% (A-Blank relative to control),[2]; 300 uM,56.2004%
same,A-Blank (Average-Blank) O.D. at 570 nm,[2]; 300 uM,0.46 O.D.
same,Average O.D. reading at 570 nm,[2]; 300 uM,0.5475 O.D.
same,% (A-Blank relative to control),[2]; 500 uM,36.68%
same,A-Blank (Average-Blank) O.D. at 570 nm,[2]; 500 uM,0.3003 O.D.
same,Average O.D. reading at 570 nm,[2]; 500 uM,0.3877 O.D.
same,Inhibition of cell proliferation,[3],inhibited cell proliferation
same,% (A-Blank relative to control),[3]; 10 uM,101.2806%
same,A-Blank (Average-Blank) O.D. at 570 nm,[3]; 10 uM,0.692 O.D.
same,Average O.D. reading at 570 nm,[3]; 10 uM,0.7792 O.D.
same,% (A-Blank relative to control),[3]; 25 uM,99.49%
same,A-Blank (Average-Blank) O.D. at 570 nm,[3]; 25 uM,0.68 O.D.
same,Average O.D. reading at 570 nm,[3]; 25 uM,0.767 O.D.
same,% (A-Blank relative to control),[3]; 50 uM,100.8%
same,A-Blank (Average-Blank) O.D. at 570 nm,[3]; 50 uM,0.689 O.D.
same,Average O.D. reading at 570 nm,[3]; 50 uM,0.776 O.D.
same,% (A-Blank relative to control),[3]; 75 uM,96.52%
same,A-Blank (Average-Blank) O.D. at 570 nm,[3]; 75 uM,0.66 O.D.
same,Average O.D. reading at 570 nm,[3]; 75 uM,0.747 O.D.
same,% (A-Blank relative to control),[3]; 100 uM,90.45%
same,A-Blank (Average-Blank) O.D. at 570 nm,[3]; 100 uM,0.618 O.D.
same,Average O.D. reading at 570 nm,[3]; 100 uM,0.705 O.D.
same,% (A-Blank relative to control),[3]; 200 uM,53.055%
same,A-Blank (Average-Blank) O.D. at 570 nm,[3]; 200 uM,0.3625 O.D.
same,Average O.D. reading at 570 nm,[3]; 200 uM,0.4498 O.D.
same,% (A-Blank relative to control),[3]; 300 uM,12.221%
same,A-Blank (Average-Blank) O.D. at 570 nm,[3]; 300 uM,0.0835 O.D.
same,Average O.D. reading at 570 nm,[3]; 300 uM,0.1708 O.D.
same,% (A-Blank relative to control),[3]; 500 uM,5.196%
same,A-Blank (Average-Blank) O.D. at 570 nm,[3]; 500 uM,0.0355 O.D.
same,Average O.D. reading at 570 nm,[3]; 500 uM,0.1227 O.D.
